Experimental data reported in patent US12227500B2, “Substituted pyrrolo[2,3-b]pyridines for suppressing toxic endoplasmic reticulum stress” (THE TRUSTEES OF COLUMBIA UNIVERSITY IN THE CITY OF NEW YORK, priority 2018, dated 2025).
Like-named read-outs stand apart in the source and are kept apart here.

What was measured:
Test in all cases: Radiolabeled ATP kinase assay, panel of 371 kinases (Table S6)
Assay type in all cases: biochemical
[1] = target: T1, panel of 371 human kinases (Homo sapiens, UniProt O00506); conditions: STK25/YSK1; 0.1 μM; 10 μM ATP; read-out: % Enzyme Activity (relative to DMSO controls)
T1 construct: purchased Reaction Biology Corp
T1 sequence (O00506 whole entry): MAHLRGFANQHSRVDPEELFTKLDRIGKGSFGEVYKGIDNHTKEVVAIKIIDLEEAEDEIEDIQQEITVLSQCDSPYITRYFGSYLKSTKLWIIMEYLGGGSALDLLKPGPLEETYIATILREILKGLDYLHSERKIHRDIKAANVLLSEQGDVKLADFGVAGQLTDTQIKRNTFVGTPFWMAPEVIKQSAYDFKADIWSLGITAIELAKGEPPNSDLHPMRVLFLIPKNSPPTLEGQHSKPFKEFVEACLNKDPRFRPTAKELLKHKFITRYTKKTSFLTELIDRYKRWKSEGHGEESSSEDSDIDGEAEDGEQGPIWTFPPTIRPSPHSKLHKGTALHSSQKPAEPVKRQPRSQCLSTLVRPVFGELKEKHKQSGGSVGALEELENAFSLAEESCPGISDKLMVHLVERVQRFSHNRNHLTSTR
Description: (§1) ; FIG. 38C). […]. Further targeted analyses, such as genetic knock-down or knock-out, may be warranted to parse the role of these additional kinases in our model of neurodegeneration.

[2] = target: T2, panel of 371 human kinases (Homo sapiens, UniProt O15264); conditions: P38d/MAPK13; 0.1 μM; 10 μM ATP; read-out: % Enzyme Activity (relative to DMSO controls)
T2 construct: purchased Reaction Biology Corp
T2 sequence (O15264 whole entry): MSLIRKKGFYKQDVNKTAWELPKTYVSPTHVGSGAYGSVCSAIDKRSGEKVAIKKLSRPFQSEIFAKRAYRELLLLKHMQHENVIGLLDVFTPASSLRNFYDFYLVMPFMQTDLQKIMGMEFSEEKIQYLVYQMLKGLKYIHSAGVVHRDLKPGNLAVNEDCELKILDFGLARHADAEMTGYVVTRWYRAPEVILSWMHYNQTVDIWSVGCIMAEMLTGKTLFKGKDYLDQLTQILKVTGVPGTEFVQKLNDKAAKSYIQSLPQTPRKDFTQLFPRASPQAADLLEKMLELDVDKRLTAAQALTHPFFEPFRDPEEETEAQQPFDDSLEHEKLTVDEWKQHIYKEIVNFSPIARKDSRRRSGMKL
Description: as §1

[3] = target: T3, panel of 371 human kinases (Homo sapiens, UniProt O75676); conditions: MSK2/RPS6KA4; 0.1 μM; 10 μM ATP; read-out: % Enzyme Activity (relative to DMSO controls)
T3 construct: purchased Reaction Biology Corp
Description: as §1

[4] = target: T4, panel of 371 human kinases (Homo sapiens, UniProt P04049); conditions: RAF1; 0.1 μM; 10 μM ATP; read-out: % Enzyme Activity (relative to DMSO controls)
T4 construct: purchased Reaction Biology Corp
T4 sequence (P04049 whole entry): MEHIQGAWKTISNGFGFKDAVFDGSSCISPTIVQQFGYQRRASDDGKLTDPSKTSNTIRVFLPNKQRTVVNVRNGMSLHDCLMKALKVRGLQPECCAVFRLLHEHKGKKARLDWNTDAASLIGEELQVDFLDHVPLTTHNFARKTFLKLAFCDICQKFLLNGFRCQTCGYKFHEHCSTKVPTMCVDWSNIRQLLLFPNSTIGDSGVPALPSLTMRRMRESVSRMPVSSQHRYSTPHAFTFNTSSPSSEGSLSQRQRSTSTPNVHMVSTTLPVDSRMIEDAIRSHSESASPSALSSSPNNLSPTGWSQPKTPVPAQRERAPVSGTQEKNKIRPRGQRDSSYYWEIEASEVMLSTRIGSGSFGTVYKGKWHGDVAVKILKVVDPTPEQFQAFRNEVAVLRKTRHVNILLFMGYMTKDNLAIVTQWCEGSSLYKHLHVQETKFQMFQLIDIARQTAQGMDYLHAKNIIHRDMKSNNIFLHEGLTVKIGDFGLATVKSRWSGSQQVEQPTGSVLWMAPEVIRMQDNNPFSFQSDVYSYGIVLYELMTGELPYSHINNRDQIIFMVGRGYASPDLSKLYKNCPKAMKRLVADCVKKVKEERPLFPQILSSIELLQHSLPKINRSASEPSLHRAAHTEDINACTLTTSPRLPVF
Description: as §1

[5] = target: T5, panel of 371 human kinases (Homo sapiens, UniProt P09769); conditions: FGR; 0.1 μM; 10 μM ATP; read-out: % Enzyme Activity (relative to DMSO controls)
T5 construct: purchased Reaction Biology Corp
Description: as §1

[6] = target: T6, panel of 371 human kinases (Homo sapiens, UniProt P10721); conditions: c-Kit; 0.1 μM; 10 μM ATP; read-out: % Enzyme Activity (relative to DMSO controls)
T6 construct: purchased Reaction Biology Corp
Description: as §1

[7] = target: T7, panel of 371 human kinases (Homo sapiens, UniProt P12931); conditions: c-Src; 0.1 μM; 10 μM ATP; read-out: % Enzyme Activity (relative to DMSO controls)
T7 construct: purchased Reaction Biology Corp
T7 sequence (P12931 whole entry): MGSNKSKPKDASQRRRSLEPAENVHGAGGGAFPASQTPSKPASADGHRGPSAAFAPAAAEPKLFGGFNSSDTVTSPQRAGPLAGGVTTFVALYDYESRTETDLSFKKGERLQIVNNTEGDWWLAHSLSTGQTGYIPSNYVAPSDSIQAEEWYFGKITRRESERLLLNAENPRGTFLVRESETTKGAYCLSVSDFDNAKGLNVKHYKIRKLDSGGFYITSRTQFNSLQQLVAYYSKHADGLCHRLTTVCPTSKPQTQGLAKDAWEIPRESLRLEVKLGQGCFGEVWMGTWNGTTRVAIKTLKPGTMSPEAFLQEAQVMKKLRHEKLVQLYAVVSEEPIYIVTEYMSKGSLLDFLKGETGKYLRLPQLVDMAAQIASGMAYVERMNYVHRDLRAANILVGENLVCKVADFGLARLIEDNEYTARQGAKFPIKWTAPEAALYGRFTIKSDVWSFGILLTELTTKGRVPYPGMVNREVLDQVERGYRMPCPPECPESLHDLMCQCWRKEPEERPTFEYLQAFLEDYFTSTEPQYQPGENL
Description: as §1

[8] = target: T8, panel of 371 human kinases (Homo sapiens, UniProt P29317); conditions: EPHA2; 0.1 μM; 10 μM ATP; read-out: % Enzyme Activity (relative to DMSO controls)
T8 construct: purchased Reaction Biology Corp
Description: as §1

[9] = target: T9, panel of 371 human kinases (Homo sapiens, UniProt P42679); conditions: CTK/MATK; 0.1 μM; 10 μM ATP; read-out: % Enzyme Activity (relative to DMSO controls)
T9 construct: purchased Reaction Biology Corp
Description: as §1

[10] = target: T10, panel of 371 human kinases (Homo sapiens, UniProt P50750); conditions: 0.1 μM, 10 μM ATP, read-out: % Enzyme Activity (relative to DMSO controls)
T10 construct: purchased Reaction Biology Corp
T10 sequence (P50750 whole entry): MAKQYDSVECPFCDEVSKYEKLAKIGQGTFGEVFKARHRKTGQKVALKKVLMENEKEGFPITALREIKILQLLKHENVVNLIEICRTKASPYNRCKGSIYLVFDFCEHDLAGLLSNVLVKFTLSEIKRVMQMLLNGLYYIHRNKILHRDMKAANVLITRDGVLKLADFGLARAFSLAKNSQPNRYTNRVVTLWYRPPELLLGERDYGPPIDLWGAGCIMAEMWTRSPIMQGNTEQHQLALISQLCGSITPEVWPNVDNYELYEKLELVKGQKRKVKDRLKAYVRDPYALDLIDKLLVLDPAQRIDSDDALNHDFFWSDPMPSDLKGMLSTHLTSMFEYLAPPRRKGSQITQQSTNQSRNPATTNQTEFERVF
Description: as §1

[11] = target: T11, panel of 371 human kinases (Homo sapiens, UniProt P53355); conditions: DAPK1; 0.1 μM; 10 μM ATP; read-out: % Enzyme Activity (relative to DMSO controls)
T11 construct: purchased Reaction Biology Corp
Description: as §1

[12] = target: T12, panel of 371 human kinases (Homo sapiens, UniProt P53667); conditions: LIMK1; 0.1 μM; 10 μM ATP; read-out: % Enzyme Activity (relative to DMSO controls)
T12 construct: purchased Reaction Biology Corp
T12 sequence (P53667 whole entry): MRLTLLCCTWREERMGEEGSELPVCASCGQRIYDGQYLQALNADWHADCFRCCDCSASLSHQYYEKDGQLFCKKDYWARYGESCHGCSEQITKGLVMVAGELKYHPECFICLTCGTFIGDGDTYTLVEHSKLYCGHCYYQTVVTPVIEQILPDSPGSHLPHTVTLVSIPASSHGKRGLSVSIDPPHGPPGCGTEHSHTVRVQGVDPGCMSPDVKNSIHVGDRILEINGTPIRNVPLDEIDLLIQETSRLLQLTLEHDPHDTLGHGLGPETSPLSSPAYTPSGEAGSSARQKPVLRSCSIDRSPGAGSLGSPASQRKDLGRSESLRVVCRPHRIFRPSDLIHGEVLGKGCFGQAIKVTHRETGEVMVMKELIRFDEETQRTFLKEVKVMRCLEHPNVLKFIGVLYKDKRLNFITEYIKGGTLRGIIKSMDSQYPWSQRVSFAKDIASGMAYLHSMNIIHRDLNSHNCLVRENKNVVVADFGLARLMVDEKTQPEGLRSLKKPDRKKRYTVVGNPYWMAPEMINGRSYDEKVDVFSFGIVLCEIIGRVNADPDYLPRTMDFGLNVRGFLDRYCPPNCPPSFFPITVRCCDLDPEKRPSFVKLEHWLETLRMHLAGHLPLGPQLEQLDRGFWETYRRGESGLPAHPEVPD
Description: as §1

[13] = target: T13, panel of 371 human kinases (Homo sapiens, UniProt P54756); conditions: EPHA5; 0.1 μM; 10 μM ATP; read-out: % Enzyme Activity (relative to DMSO controls)
T13 construct: purchased Reaction Biology Corp
Description: as §1

[14] = target: T14, panel of 371 human kinases (Homo sapiens, UniProt P78362); conditions: SRPK2; 0.1 μM; 10 μM ATP; read-out: % Enzyme Activity (relative to DMSO controls)
T14 construct: purchased Reaction Biology Corp
Description: as §1

[15] = target: T15, panel of 371 human kinases (Homo sapiens, UniProt Q05397); conditions: FAK/PTK2; 0.1 μM; 10 μM ATP; read-out: % Enzyme Activity (relative to DMSO controls)
T15 construct: purchased Reaction Biology Corp
T15 sequence (Q05397 whole entry): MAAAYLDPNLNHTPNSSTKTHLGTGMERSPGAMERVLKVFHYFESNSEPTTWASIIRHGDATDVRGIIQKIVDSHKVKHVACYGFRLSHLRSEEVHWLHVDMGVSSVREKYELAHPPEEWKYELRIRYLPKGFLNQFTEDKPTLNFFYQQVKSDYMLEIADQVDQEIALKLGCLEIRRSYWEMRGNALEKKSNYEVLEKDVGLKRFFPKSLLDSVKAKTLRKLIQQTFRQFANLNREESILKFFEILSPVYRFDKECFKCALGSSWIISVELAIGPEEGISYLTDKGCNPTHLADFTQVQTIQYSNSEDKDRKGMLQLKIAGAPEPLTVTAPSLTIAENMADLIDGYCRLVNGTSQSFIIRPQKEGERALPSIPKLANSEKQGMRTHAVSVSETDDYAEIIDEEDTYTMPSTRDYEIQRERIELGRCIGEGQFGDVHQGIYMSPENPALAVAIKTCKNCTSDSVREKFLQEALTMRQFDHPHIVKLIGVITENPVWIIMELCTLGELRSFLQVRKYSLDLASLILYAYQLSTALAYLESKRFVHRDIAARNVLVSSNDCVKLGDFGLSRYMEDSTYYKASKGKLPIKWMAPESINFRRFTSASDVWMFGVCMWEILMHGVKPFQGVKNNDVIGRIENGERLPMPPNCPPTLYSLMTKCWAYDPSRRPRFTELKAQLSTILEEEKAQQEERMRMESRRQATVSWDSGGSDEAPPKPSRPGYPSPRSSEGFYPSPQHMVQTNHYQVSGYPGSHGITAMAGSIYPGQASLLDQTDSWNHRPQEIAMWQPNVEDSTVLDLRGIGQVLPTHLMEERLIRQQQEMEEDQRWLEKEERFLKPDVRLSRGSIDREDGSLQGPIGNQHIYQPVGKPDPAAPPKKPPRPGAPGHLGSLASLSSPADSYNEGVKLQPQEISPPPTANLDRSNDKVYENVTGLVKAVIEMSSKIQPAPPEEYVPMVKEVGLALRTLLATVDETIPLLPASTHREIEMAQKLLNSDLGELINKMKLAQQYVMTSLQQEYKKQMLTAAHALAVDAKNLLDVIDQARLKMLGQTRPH
Description: as §1

[16] = target: T16, panel of 371 human kinases (Homo sapiens, UniProt Q13554); conditions: CAMK2b; 0.1 μM; 10 μM ATP; read-out: % Enzyme Activity (relative to DMSO controls)
T16 construct: purchased Reaction Biology Corp
Description: as §1

[17] = target: T17, panel of 371 human kinases (Homo sapiens, UniProt Q15418); conditions: RSK1; 0.1 μM; 10 μM ATP; read-out: % Enzyme Activity (relative to DMSO controls)
T17 construct: purchased Reaction Biology Corp
Description: as §1

[18] = target: T18, panel of 371 human kinases (Homo sapiens, UniProt Q8NE63); conditions: HIPK4; 0.1 μM; 10 μM ATP; read-out: % Enzyme Activity (relative to DMSO controls)
T18 construct: purchased Reaction Biology Corp
Description: as §1

[19] = target: T19, panel of 371 human kinases (Homo sapiens, UniProt Q96S53); conditions: TESK2; 0.1 μM; 10 μM ATP; read-out: % Enzyme Activity (relative to DMSO controls)
T19 construct: purchased Reaction Biology Corp
T19 sequence (Q96S53 whole entry): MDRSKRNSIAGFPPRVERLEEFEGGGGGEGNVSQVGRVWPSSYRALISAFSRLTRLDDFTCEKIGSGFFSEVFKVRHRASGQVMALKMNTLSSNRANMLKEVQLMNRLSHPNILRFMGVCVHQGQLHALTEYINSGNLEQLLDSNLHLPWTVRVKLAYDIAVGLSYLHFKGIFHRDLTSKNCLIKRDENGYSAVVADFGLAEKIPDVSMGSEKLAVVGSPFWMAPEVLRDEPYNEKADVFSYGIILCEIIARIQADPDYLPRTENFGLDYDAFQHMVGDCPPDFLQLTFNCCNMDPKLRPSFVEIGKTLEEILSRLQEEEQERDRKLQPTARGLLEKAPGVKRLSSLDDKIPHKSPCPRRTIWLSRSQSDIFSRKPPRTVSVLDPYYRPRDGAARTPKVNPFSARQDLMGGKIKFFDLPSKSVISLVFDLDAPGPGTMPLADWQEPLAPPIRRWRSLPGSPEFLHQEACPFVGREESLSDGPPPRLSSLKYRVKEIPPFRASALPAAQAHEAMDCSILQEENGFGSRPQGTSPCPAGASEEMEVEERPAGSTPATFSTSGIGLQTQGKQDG
Description: as §1

[20] = target: T20, panel of 371 human kinases (Homo sapiens, UniProt Q9BXA6); conditions: SSTK/TSSK6; 0.1 μM; 10 μM ATP; read-out: % Enzyme Activity (relative to DMSO controls)
T20 construct: purchased Reaction Biology Corp
Description: as §1

[21] = target: T21, panel of 371 human kinases (Homo sapiens, UniProt Q9BYP7); conditions: WNK3; 0.1 μM; 10 μM ATP; read-out: % Enzyme Activity (relative to DMSO controls)
T21 construct: purchased Reaction Biology Corp
Description: as §1

[22] = target: T22, panel of 371 human kinases (Homo sapiens, UniProt Q9UQB9); conditions: Aurora C; 0.1 μM; 10 μM ATP; read-out: % Enzyme Activity (relative to DMSO controls)
T22 construct: purchased Reaction Biology Corp
T22 sequence (Q9UQB9 whole entry): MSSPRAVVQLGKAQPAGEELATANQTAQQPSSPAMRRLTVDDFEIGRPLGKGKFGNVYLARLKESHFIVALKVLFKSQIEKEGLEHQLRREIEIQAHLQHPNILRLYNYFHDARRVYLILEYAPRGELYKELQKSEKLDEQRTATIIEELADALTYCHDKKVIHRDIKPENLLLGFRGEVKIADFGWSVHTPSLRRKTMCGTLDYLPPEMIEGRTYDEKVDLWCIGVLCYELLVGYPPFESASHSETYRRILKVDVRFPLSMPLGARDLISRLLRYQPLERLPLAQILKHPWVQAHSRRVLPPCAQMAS
Description: as §1

[23] = target: T23, panel of 371 human kinases (Homo sapiens, UniProt Q9UQM7); conditions: CAMK2a; 0.1 μM; 10 μM ATP; read-out: % Enzyme Activity (relative to DMSO controls)
T23 construct: purchased Reaction Biology Corp
Description: as §1

[24] = target: T24, panel of 371 human kinases (Homo sapiens, UniProt Q9Y2K2); conditions: SIK3; 0.1 μM; 10 μM ATP; read-out: % Enzyme Activity (relative to DMSO controls)
T24 construct: purchased Reaction Biology Corp
Description: as §1

SMILES: CN1CCN(Cc2ccc(-c3cnc4[nH]cc(-c5ccc6[nH]ccc6c5)c4c3)cc2)CC1 [Compound 1, 3-(1H-Indol-5-yl)-5-(4-((4-methylpiperazin-1-yl)methyl)phenyl)-1H-pyrrolo[2,3-b]pyridine, reference compound]
- remaining activity at 0.1 µM [1]: 102%
- remaining activity at 0.1 µM [2]: 132%
- remaining activity at 0.1 µM [3]: 114%
- remaining activity at 0.1 µM [4]: 104%
- remaining activity at 0.1 µM [5]: 97.2%
- remaining activity at 0.1 µM [6]: 100%
- remaining activity at 0.1 µM [7]: 86%
- remaining activity at 0.1 µM [8]: 93.6%
- remaining activity at 0.1 µM [9]: 102%
- remaining activity at 0.1 µM ([10]; CDK9/cyclin K): 79.8%
- remaining activity at 0.1 µM ([10]; CDK9/cyclin T1): 86%
- remaining activity at 0.1 µM ([10]; CDK9/cyclin T2): 112%
- remaining activity at 0.1 µM [11]: 96.3%
- remaining activity at 0.1 µM [12]: 112%
- remaining activity at 0.1 µM [13]: 94.2%
- remaining activity at 0.1 µM [14]: 80.3%
- remaining activity at 0.1 µM [15]: 86.3%
- remaining activity at 0.1 µM [16]: 95.5%
- remaining activity at 0.1 µM [17]: 85.4%
- remaining activity at 0.1 µM [18]: 107%
- remaining activity at 0.1 µM [19]: 112%
- remaining activity at 0.1 µM [20]: 121%
- remaining activity at 0.1 µM [21]: 93.7%
- remaining activity at 0.1 µM [22]: 110%
- remaining activity at 0.1 µM [23]: 101%
- remaining activity at 0.1 µM [24]: 75.5%

SMILES: OCCN1CCN(Cc2ccc(-c3cnc4[nH]cc(-c5cccc(Cl)c5)c4c3)cc2)CC1 [Compound 12k, 2-(4-(4-(3-(3-Chlorophenyl)-1H-pyrrolo[2,3-b]pyridin-5-yl)benzyl)piperazin-1-yl)ethan-1-ol]
- remaining activity at 0.1 µM [1]: 72.4%
- remaining activity at 0.1 µM [2]: 103%
- remaining activity at 0.1 µM [3]: 110%
- remaining activity at 0.1 µM [4]: 105%
- remaining activity at 0.1 µM [5]: 84.2%
- remaining activity at 0.1 µM [6]: 89.8%
- remaining activity at 0.1 µM [7]: 88.1%
- remaining activity at 0.1 µM [8]: 92.3%
- remaining activity at 0.1 µM [9]: 96.5%
- remaining activity at 0.1 µM ([10]; CDK9/cyclin K): 88.5%
- remaining activity at 0.1 µM ([10]; CDK9/cyclin T1): 88.7%
- remaining activity at 0.1 µM ([10]; CDK9/cyclin T2): 99.1%
- remaining activity at 0.1 µM [11]: 95.4%
- remaining activity at 0.1 µM [12]: 103%
- remaining activity at 0.1 µM [13]: 98.8%
- remaining activity at 0.1 µM [14]: 93.6%
- remaining activity at 0.1 µM [15]: 88.5%
- remaining activity at 0.1 µM [16]: 92.2%
- remaining activity at 0.1 µM [17]: 90%
- remaining activity at 0.1 µM [18]: 105%
- remaining activity at 0.1 µM [19]: 92.7%
- remaining activity at 0.1 µM [20]: 102%
- remaining activity at 0.1 µM [21]: 82.2%
- remaining activity at 0.1 µM [22]: 97.3%
- remaining activity at 0.1 µM [23]: 110%
- remaining activity at 0.1 µM [24]: 92.3%
